One experiment concerns the target LYN B (Homo sapiens, UniProt P07948). The experiment in a line: Z'-LYTE SelectScreen biochemical kinase assay LYN B. An excerpt: (§1) Thermo Fisher Scientific SelectScreen™ Biochemical Kinase Profiling Service Z′-LYTE™ Screening Protocol and Assay Conditions Assay Theory
(§2) The […] biochemical assay employs a fluorescence-based, coupled-enzyme format and is based on the differential sensitivity of phosphorylated and non-phosphorylated peptides to proteolytic cleavage. The peptide substrate is labeled with two fluorophores—one at each end—that make up a FRET pair. In the primary reaction, the kinase transfers the gamma-phosphate of ATP to a single tyrosine, serine or threonine residue in a synthetic FRET-peptide. In the secondary reaction, a site-specific protease recognizes and cleaves non-phosphorylated FRET-peptides. Phosphorylation of FRET-peptides suppresses cleavage by the Development Reagent. Cleavage disrupts FRET between the donor (i.e., coumarin) and acceptor (i.e., fluorescein) fluorophores on the FRET-peptide, whereas uncleaved, phosphorylated FRET-peptides maintain FRET. A ratiometric method, which calculates the ratio (Emission Ratio=Coumarin emission (445 nm)/Fluorescein emission (520 nm)) of donor emission to acceptor emission after excitation of the donor fluorophore at 400 nm, is used to quantitate reaction progress, as shown in the equation below. A significant benefit of this ratiometric method for quantitating reaction progress is the elimination of well-to-well variations in FRET-peptide concentration and signal intensities. As a result, the assay yields very high Z′-factor values (>0.7) at a low percent phosphorylation. Both cleaved and uncleaved FRET-peptides contribute to the fluorescence signals and therefore to the Emission Ratio. The extent of phosphorylation of the FRET-peptide can be calculated from the Emission Ratio. The Emission Ratio will remain low if the FRET-peptide is phosphorylated (i.e., no kinase inhibition) and will be high if the FRET-peptide is non-phosphorylated (i.e., kinase inhibition).
(§3) The Test Compounds are screened in 1% DMSO (final) in the well. For 10 point titrations, 3-fold serial dilutions are conducted from the starting concentration of the customer's choosing.
(§4) All Peptide/Kinase Mixtures are diluted to a 2× working concentration in the appropriate Kinase Buffer (see section Kinase Specific Assay Conditions for a complete description).
(§5) All ATP Solutions are diluted to a 4× working concentration in Kinase Buffer (50 mM HEPES pH 7.5, 0.01% BRIJ-35, 10 mM MgCl2, 1 mM EGTA). ATP Km apparent is previously determined using a Z″-LYTE assay.
(§6) The Development Reagent is diluted in Development Buffer (see section Kinase-Specific Assay Conditions—Direct and Cascade for a complete description).
(§7) Bar-coded Corning, low volume NBS, black 384-well plate (Corning Cat. #4514) • 1. 100 nL—100× Test Compound in 100% DMSO • 2. 2.4 μL—Kinase buffer • 3. 5 μL—2× Peptide/Kinase Mixture • 4. 2.5 μL—4×ATP Solution • 5. 30—second plate shake • 6. 60—minute Kinase Reaction incubation at room temperature • 7. 5 μL—Development Reagent Solution • 8. 30—second plate shake • 9. 60—minute Development Reaction incubation at room temperature • 10. Read on fluorescence plate reader and analyze the data Z′-LYTE Assay Controls
(§8) SelectScreen Kinase Profiling Service uses XLfit from IDBS. The dose response curve is curve fit to model number 205 (sigmoidal dose-response model).
The 2×LYN B/Tyr 02 mixture is prepared in 50 mM HEPES pH 7.5, 0.01% BRIJ-35, 10 mM MgCl2, 1 mM EGTA. The final 10 μL Kinase Reaction consists of 0.85-14.8 ng LYN B and 2 μM Tyr 02 in 50 mM HEPES pH 7.5, 0.01% BRIJ-35, 10 mM MgCl2, 1 mM EGTA. After the 1 hour Kinase Reaction incubation, 5 μL of a 1:128 dilution of Development Reagent A is added.

Another experiment addresses FGFR2 (Homo sapiens, UniProt P21802). The experiment in a line: Z'-LYTE SelectScreen biochemical kinase assay FGFR2.
From the text: as §1, §2, §3, §4, §5, §6, §7, §8
The 2×FGFR2/Tyr 04 mixture is prepared in 50 mM HEPES pH 7.5, 0.01% BRIJ-35, 10 mM MgCl2, 4 mM MnCl2, 1 mM EGTA, 2 mM DTT. The final 10 μL Kinase Reaction consists of 0.19-1.99 ng FGFR2 and 2 μM Tyr 04 in 50 mM HEPES pH 7.5, 0.01% BRIJ-35, 10 mM MgCl2, 2 mM MnCl2, 1 mM EGTA, 1 mM DTT. After the 1 hour Kinase Reaction incubation, 5 μL of a 1:64 dilution of Development Reagent B is added.

For a further experiment, the target named is RPS6KB1 (p70S6K) (Homo sapiens, UniProt P23443). The experiment in a line: Z'-LYTE SelectScreen biochemical kinase assay RPS6KB1 (p70S6K).
Chain of RPS6KB1 (p70S6K) (P23443 whole entry): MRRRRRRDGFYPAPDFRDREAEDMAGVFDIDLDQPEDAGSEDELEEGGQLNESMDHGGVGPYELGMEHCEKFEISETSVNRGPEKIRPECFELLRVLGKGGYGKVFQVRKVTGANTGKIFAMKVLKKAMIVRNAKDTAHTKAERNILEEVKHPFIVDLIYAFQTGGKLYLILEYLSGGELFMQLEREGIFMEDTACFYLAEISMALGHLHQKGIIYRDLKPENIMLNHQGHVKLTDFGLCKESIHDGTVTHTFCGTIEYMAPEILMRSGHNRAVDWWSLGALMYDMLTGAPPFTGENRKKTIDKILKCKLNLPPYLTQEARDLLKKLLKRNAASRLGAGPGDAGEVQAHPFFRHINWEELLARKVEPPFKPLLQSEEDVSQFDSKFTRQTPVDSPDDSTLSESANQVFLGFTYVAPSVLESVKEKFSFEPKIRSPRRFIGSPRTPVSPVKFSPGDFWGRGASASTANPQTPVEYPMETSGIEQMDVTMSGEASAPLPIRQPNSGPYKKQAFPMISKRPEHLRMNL
From the text: as §1, §2, §3, §4, §5, §6, §7, §8
The 2×RPS6 KB1 (p70S6K)/Ser/Thr 07 mixture is prepared in 50 mM HEPES pH 7.5, 0.01% BRIJ-35, 10 mM MgCl2, 1 mM EGTA. The final 10 μL Kinase Reaction consists of 2.87-17.7 ng RPS6 KB1 (p70S6K) and 2 μM Ser/Thr 07 in 50 mM HEPES pH 7.5, 0.01% BRIJ-35, 10 mM MgCl2, 1 mM EGTA. After the 1 hour Kinase Reaction incubation, 5 μL of a 1:45000 dilution of Development Reagent A is added.

Another experiment concerns the target PDGFRA (PDGFR alpha) (Homo sapiens, UniProt P16234). The experiment in a line: Z'-LYTE SelectScreen biochemical kinase assay PDGFRA (PDGFR alpha).
From the text: as §1, §2, §3, §4, §5, §6, §7, §8
The 2×PDGFRA (PDGFR alpha)/Tyr 04 mixture is prepared in 50 mM HEPES pH 7.5, 0.01% BRIJ-35, 10 mM MgCl2, 4 mM MnCl2, 1 mM EGTA, 2 mM DTT. The final 10 μL Kinase Reaction consists of 1.54-22.6 ng PDGFRA (PDGFR alpha) and 2 μM Tyr 04 in 50 mM HEPES pH 7.5, 0.01% BRIJ-35, 10 mM MgCl2, 2 mM MnCl2, 1 mM EGTA, 1 mM DTT. After the 1 hour Kinase Reaction incubation, 5 μL of a 1:64 dilution of Development Reagent B is added.

[1] abbreviates: 10 μmolar compound concentration, ATP at Km app, read-out: LYN B inhibition.
[2] abbreviates: read-out: % Inhibition mean LYN B.
The mark [3] stands for this setting: 10 μmolar compound concentration, ATP at Km app, read-out: FGFR2 inhibition.
Setting [4] is: read-out: % Inhibition mean FGFR2.
Setting [5] is: 10 μmolar compound concentration, ATP at Km app, read-out: RPS6KB1 (p70S6K) inhibition.
Where [6] appears, read: read-out: % Inhibition mean RPS6KB1 (p70S6K).
The mark [7] stands for this setting: 10 μmolar compound concentration, ATP at Km app, read-out: PDGFRA (PDGFR alpha) inhibition.
The mark [8] stands for this setting: read-out: % Inhibition mean PDGFRA (PDGFR alpha).

SMILES strings stand for the structures. Read-outs that look alike come from different tables or passages of the source. Bounds are passed on as bounds.

Chain of FGFR2 (P21802 22-821): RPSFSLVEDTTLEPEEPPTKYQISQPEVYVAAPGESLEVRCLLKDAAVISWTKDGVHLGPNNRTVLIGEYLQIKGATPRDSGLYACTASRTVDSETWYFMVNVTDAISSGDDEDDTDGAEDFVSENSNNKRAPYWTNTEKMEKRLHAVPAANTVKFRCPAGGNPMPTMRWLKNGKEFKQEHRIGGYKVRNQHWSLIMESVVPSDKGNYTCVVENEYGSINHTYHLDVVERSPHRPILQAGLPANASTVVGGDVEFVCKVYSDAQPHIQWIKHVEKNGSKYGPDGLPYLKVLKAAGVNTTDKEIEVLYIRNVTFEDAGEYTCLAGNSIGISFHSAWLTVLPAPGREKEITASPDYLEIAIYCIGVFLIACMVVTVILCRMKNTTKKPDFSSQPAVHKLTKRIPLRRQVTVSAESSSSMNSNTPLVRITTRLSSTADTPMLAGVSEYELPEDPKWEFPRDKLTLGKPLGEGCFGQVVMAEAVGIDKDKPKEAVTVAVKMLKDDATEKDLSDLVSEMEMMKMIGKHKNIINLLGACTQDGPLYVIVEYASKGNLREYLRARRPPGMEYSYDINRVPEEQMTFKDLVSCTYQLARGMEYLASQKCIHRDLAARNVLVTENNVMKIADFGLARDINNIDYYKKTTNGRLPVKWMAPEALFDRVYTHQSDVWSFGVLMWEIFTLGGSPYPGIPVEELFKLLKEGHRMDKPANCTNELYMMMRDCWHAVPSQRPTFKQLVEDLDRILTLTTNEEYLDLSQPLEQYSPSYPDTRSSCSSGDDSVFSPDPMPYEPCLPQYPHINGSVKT
Chain of LYN B (P07948 1-491 isoform P07948-2): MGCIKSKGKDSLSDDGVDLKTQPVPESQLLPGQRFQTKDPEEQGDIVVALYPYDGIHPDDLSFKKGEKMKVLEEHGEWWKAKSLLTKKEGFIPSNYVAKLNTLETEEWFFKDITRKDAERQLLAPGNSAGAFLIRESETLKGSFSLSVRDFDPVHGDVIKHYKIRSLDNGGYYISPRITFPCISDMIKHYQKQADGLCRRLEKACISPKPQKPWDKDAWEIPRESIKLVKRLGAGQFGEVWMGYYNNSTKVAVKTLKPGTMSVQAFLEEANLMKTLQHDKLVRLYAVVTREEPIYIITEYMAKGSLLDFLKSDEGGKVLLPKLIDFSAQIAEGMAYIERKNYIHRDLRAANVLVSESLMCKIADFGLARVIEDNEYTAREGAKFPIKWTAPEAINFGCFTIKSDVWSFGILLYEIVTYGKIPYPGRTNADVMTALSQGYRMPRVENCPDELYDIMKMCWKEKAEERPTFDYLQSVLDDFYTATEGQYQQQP
Chain of PDGFRA (PDGFR alpha) (P16234 24-1089): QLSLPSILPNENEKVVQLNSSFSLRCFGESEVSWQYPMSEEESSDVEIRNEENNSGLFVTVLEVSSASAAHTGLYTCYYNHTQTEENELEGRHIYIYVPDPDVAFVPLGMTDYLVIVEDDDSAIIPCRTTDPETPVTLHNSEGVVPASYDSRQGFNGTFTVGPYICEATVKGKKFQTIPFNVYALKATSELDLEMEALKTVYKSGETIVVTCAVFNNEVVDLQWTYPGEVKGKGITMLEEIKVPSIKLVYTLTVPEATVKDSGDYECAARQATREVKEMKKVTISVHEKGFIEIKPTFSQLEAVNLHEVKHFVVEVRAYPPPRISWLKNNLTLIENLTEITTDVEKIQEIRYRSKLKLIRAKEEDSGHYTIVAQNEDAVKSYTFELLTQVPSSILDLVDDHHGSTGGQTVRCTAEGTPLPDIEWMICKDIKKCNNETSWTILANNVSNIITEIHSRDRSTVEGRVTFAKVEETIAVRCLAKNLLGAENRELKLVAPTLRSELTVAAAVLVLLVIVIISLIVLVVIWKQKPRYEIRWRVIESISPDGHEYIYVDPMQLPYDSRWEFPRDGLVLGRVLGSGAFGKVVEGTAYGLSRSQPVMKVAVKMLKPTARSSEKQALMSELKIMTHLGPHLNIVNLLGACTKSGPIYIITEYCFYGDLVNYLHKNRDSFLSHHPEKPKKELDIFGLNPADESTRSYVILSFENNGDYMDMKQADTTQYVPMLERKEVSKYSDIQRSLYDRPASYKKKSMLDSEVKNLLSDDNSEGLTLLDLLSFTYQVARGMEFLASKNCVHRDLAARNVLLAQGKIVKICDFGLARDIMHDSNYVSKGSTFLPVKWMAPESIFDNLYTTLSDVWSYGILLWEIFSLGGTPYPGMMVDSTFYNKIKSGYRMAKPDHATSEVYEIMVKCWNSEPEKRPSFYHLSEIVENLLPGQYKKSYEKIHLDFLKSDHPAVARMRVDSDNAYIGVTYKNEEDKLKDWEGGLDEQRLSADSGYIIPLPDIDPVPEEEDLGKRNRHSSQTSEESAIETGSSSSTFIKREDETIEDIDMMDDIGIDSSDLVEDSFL

For `CCCCn1ncc2c1CCC(Nc1nc3c(-c4ccc(F)cc4C)cccn3n1)C2` (stereo not drawn) [Example 46, [8-(4-fluoro-2-methyl-phenyl)-[1,2,4]triazolo[1,5-a]pyridine-2-yl]-(1-butyl-4,5,6,7-tetrahydro-1H-indazol-5-yl)-amine], the inhibition at 10 µM is under 40% on LYN B (setting [1]); 23% on LYN B (setting [2]); under 40% on FGFR2 (setting [3]); 26% on FGFR2 (setting [4]); under 40% at RPS6KB1 (p70S6K) (setting [5]); 6% at RPS6KB1 (p70S6K) (setting [6]). Also, the inhibition at 10 µM at PDGFRA (PDGFR alpha) (setting [7]) was under 40%; at PDGFRA (PDGFR alpha) (setting [8]), 25%.
Regarding `CCn1ncc2c1CCC(Nc1nc3c(-c4cncc(Cl)c4)cccn3n1)C2` (stereo not drawn) [Example 73, [8-(5-Chloro-pyridin-3-yl)-[1,2,4]triazolo[1,5-a]pyridine-2-yl]-(1-ethyl-4,5,6,7-tetrahydro-1H-indazol-5-yl)-amine], the inhibition at 10 µM on LYN B (setting [1]) was under 40%; at LYN B (setting [2]), 31%; on FGFR2 (setting [3]), under 40%; at FGFR2 (setting [4]), 26%; at RPS6KB1 (p70S6K) (setting [5]), under 40%; at RPS6KB1 (p70S6K) (setting [6]) it was 24%. The results for the inhibition at 10 µM at PDGFRA (PDGFR alpha) (setting [7]) and at PDGFRA (PDGFR alpha) (setting [8]) were under 40% and 23%, respectively.
Consider `CCn1ncc2c1CCC(Nc1nc3c(-c4ccc(C)nc4)cccn3n1)C2` (stereo not drawn) [Example 67, (1-Ethyl-4,5,6,7-tetrahydro-1H-indazol-5-yl)-[8-(6-methyl-pyridin-3-yl)-[1,2,4]triazolo[1,5-a]pyridine-2-yl]-amine], for which the inhibition at 10 µM is under 40% at LYN B (setting [1]); 20% at LYN B (setting [2]); under 40% at FGFR2 (setting [3]); 30% on FGFR2 (setting [4]); under 40% at RPS6KB1 (p70S6K) (setting [5]); 23% on RPS6KB1 (p70S6K) (setting [6]). Also, the inhibition at 10 µM on PDGFRA (PDGFR alpha) (setting [7]) was under 40%; at PDGFRA (PDGFR alpha) (setting [8]), 20%.
For `CCn1ncc2c1CC[C@H](Nc1nc3c(-c4ccc(F)c(Cl)c4)cccn3n1)C2` [Example S-61, (S)-[8-(3-Chloro-4-fluoro-phenyl)-[1,2,4]triazolo[1,5-a]pyridine-2-yl]-(1-ethyl-4,5,6,7-tetrahydro-1H-indazol-5-yl)-amine], the inhibition at 10 µM at LYN B (setting [1]) is under 40%; at LYN B (setting [2]) it was 8%; on FGFR2 (setting [3]), under 40%; at FGFR2 (setting [4]), 13%; at RPS6KB1 (p70S6K) (setting [5]) it was under 40%; on RPS6KB1 (p70S6K) (setting [6]), 22%. Moreover, the inhibition at 10 µM at PDGFRA (PDGFR alpha) (setting [7]) was under 40%; at PDGFRA (PDGFR alpha) (setting [8]), 13%.
For `CCn1ncc2c1CC[C@@H](Nc1nc3c(-c4ccc(F)cc4C)cccn3n1)C2` [Example R-42, (R)-(1-Ethyl-4,5,6,7-tetrahydro-1H-indazol-5-yl)-[8-(4-fluoro-2-methyl-phenyl)-[1,2,4]triazolo[1,5-a]pyridine-2-yl]-amine], the inhibition at 10 µM is under 40% at LYN B (setting [1]); 26% at LYN B (setting [2]); under 40% on FGFR2 (setting [3]); 30% on FGFR2 (setting [4]); under 40% on RPS6KB1 (p70S6K) (setting [5]); 22% on RPS6KB1 (p70S6K) (setting [6]). The inhibition at 10 µM was under 40% at PDGFRA (PDGFR alpha) (setting [7]) and 18% at PDGFRA (PDGFR alpha) (setting [8]).
`CCc1nn(C)c2c1CCC(Nc1nc3c(-c4ccc(F)cc4C)cccn3n1)C2` (stereo not drawn) [Example 54, (3-Ethyl-1-methyl-4,5,6,7-tetrahydro-1H-indazol-6-yl)-[8-(4-fluoro-2-methyl-phenyl)-[1,2,4]triazolo[1,5-a]pyridine-2-yl]-amine]: the inhibition at 10 µM at LYN B (setting [1]) is under 40%; on LYN B (setting [2]), 15%; on FGFR2 (setting [3]), under 40%; at FGFR2 (setting [4]), 25%; at RPS6KB1 (p70S6K) (setting [5]), under 40%; at RPS6KB1 (p70S6K) (setting [6]), 1%. Moreover, the inhibition at 10 µM is under 40% at PDGFRA (PDGFR alpha) (setting [7]) and 30% on PDGFRA (PDGFR alpha) (setting [8]).

These data come from patent US11339161B2, “Triazolo pyridines as modulators of gamma-secretase” (Boehringer Ingelheim International GmbH, priority 2017, dated 2022).
